Test results: patent US20140045873A1, “NOVEL MICROBIOCIDES” (SYNGENTA PARTICIPATIONS AG, priority 2010, published 2014)

Tested on: Botryotinia fuckeliana (Botrytis cinerea)
Assay: Botryotinia fuckeliana (Botrytis cinerea) / liquid culture (gray mould)
Assay type: cell-based
Settings: Vogels broth, 24° C., 3-4 days after application, read-out: control of Botryotinia fuckeliana (inhibition of growth, photometric)
Description: Botryotinia Fuckeliana (Botrytis cinerea)/Liquid Culture (Gray Mould): Conidia of the fungus from cryogenic storage were directly mixed into nutrient broth (Vogels broth). […].45

SMILES	inhibition at 200 ppm [%]
C/C(=N\OCCCc1cccc(-c2ccccn2)n1)c1cccc(C)n1 [P.01]	≥ 80
C/C(=N\OCCCc1cccc(-c2ccnc(C)n2)n1)c1cccc(C)n1 [P.03]	≥ 80
C/C(=N\OCCCc1cccc(-c2ccnc(C3CC3)n2)n1)c1cccc(C)n1 [P.07]	≥ 80
C/C(=N\OCCCc1cccc(-c2cc(OCc3ccccc3)cc(C)n2)n1)c1cccc(C)n1 [P.15]	≥ 80
C#CCOc1cc(C)nc(-c2cccc(CCCO/N=C(\C)c3cccc(C)n3)n2)c1 [P.24]	≥ 80
C=CCOc1cc(C)nc(-c2cccc(CCCO/N=C(\C)c3cccc(C)n3)n2)c1 [P.25]	≥ 80
CCCOc1cc(C)nc(-c2cccc(CCCO/N=C(\C)c3cccc(C)n3)n2)c1 [P.26]	≥ 80
CCOc1cc(C)nc(-c2cccc(CCCO/N=C(\C)c3cc(C)cc(C)n3)n2)c1 [P.28]	≥ 80
C=CCOc1cc(C)nc(-c2cccc(CCCO/N=C(\C)c3cc(C)cc(C)n3)n2)c1 [P.30]	≥ 80

Tested on: Glomerella lagenarium (Colletotrichum lagenarium)
Assay: Glomerella lagenarium (Colletotrichum lagenarium) / liquid culture (anthracnose)
Assay type: cell-based
Settings: Colletotrichum orbiculare; 200 ppm, liquid culture, PDB, 24° C., 3-4 days after application; read-out: control of Glomerella lagenarium (inhibition of growth, photometric)

SMILES	inhibition at 200 ppm [%]
C/C(=N\OCCCc1cccc(-c2ccccn2)n1)c1cccc(C)n1 [P.01]	≥ 80
C/C(=N\OCCCc1cccc(-c2ccnc(C3CC3)n2)n1)c1cccc(C)n1 [P.07]	≥ 80
C/C(=N\OCCCc1cccc(-c2cc(OCc3ccccc3)cc(C)n2)n1)c1cccc(C)n1 [P.15]	≥ 80
C=CCOc1cc(C)nc(-c2cccc(CCCO/N=C(\C)c3cccc(C)n3)n2)c1 [P.25]	≥ 80
CCCOc1cc(C)nc(-c2cccc(CCCO/N=C(\C)c3cccc(C)n3)n2)c1 [P.26]	≥ 80
CCOc1cc(C)nc(-c2cccc(CCCO/N=C(\C)c3cc(C)cc(C)n3)n2)c1 [P.28]	≥ 80
C=CCOc1cc(C)nc(-c2cccc(CCCO/N=C(\C)c3cc(C)cc(C)n3)n2)c1 [P.30]	≥ 80

Tested on: Mycosphaerella arachidis (Cercospora arachidicola)
Assay: Mycosphaerella arachidis (Cercospora arachidicola) / liquid culture (early leaf spot)
Assay type: cell-based
Settings: 200 ppm, liquid culture, PDB, 24° C., 4-5 days after application, read-out: control of Mycosphaerella arachidis (inhibition of growth, photometric)

SMILES	inhibition at 200 ppm [%]
C/C(=N\OCCCc1cccc(-c2ccccn2)n1)c1cccc(C)n1 [P.01]	≥ 80
C/C(=N\OCCCc1cccc(-c2ccnc(C)n2)n1)c1cccc(C)n1 [P.03]	≥ 80
C/C(=N\OCCCc1cccc(-c2ccnc(C3CC3)n2)n1)c1cccc(C)n1 [P.07]	≥ 80
C/C(=N\OCCCc1cccc(-c2cc(OCc3ccccc3)cc(C)n2)n1)c1cccc(C)n1 [P.15]	≥ 80
C#CCOc1cc(C)nc(-c2cccc(CCCO/N=C(\C)c3cccc(C)n3)n2)c1 [P.24]	≥ 80
C=CCOc1cc(C)nc(-c2cccc(CCCO/N=C(\C)c3cccc(C)n3)n2)c1 [P.25]	≥ 80
CCCOc1cc(C)nc(-c2cccc(CCCO/N=C(\C)c3cccc(C)n3)n2)c1 [P.26]	≥ 80
CCOc1cc(C)nc(-c2cccc(CCCO/N=C(\C)c3cc(C)cc(C)n3)n2)c1 [P.28]	≥ 80
C=CCOc1cc(C)nc(-c2cccc(CCCO/N=C(\C)c3cc(C)cc(C)n3)n2)c1 [P.30]	≥ 80

Tested on: Mycosphaerella graminicola (Septoria tritici)
Assay: Mycosphaerella graminicola (Septoria tritici) / liquid culture (Septoria blotch)
Assay type: cell-based
Settings: Zymoseptoria tritici; 200 ppm, liquid culture, PDB, 24° C., 4-5 days after application; read-out: control of Mycosphaerella graminicola (inhibition of growth, photometric)

SMILES	inhibition at 200 ppm [%]
C/C(=N\OCCCc1cccc(-c2ccnc(C)n2)n1)c1cccc(C)n1 [P.03]	≥ 80
C/C(=N\OCCCc1cccc(-c2ccnc(C3CC3)n2)n1)c1cccc(C)n1 [P.07]	≥ 80
C/C(=N\OCCCc1cccc(-c2cc(OCc3ccccc3)cc(C)n2)n1)c1cccc(C)n1 [P.15]	≥ 80
C#CCOc1cc(C)nc(-c2cccc(CCCO/N=C(\C)c3cccc(C)n3)n2)c1 [P.24]	≥ 80
C=CCOc1cc(C)nc(-c2cccc(CCCO/N=C(\C)c3cccc(C)n3)n2)c1 [P.25]	≥ 80
CCCOc1cc(C)nc(-c2cccc(CCCO/N=C(\C)c3cccc(C)n3)n2)c1 [P.26]	≥ 80
CCOc1cc(C)nc(-c2cccc(CCCO/N=C(\C)c3cc(C)cc(C)n3)n2)c1 [P.28]	≥ 80
C=CCOc1cc(C)nc(-c2cccc(CCCO/N=C(\C)c3cc(C)cc(C)n3)n2)c1 [P.30]	≥ 80

Tested on: Gaeumannomyces graminis
Assay: Gaeumannomyces graminis / liquid culture (take-all of cereals)
Assay type: cell-based
Settings: 200 ppm, liquid culture, PDB, 24° C., 4-5 days after application, read-out: control of Gaeumannomyces graminis (inhibition of growth, photometric)

SMILES	inhibition at 200 ppm [%]
C/C(=N\OCCCc1cccc(-c2ccnc(C)n2)n1)c1cccc(C)n1 [P.03]	≥ 80
C/C(=N\OCCCc1cccc(-c2ccnc(C3CC3)n2)n1)c1cccc(C)n1 [P.07]	≥ 80
C/C(=N\OCCCc1cccc(-c2cc(OCc3ccccc3)cc(C)n2)n1)c1cccc(C)n1 [P.15]	≥ 80
C#CCOc1cc(C)nc(-c2cccc(CCCO/N=C(\C)c3cccc(C)n3)n2)c1 [P.24]	≥ 80
C=CCOc1cc(C)nc(-c2cccc(CCCO/N=C(\C)c3cccc(C)n3)n2)c1 [P.25]	≥ 80
CCCOc1cc(C)nc(-c2cccc(CCCO/N=C(\C)c3cccc(C)n3)n2)c1 [P.26]	≥ 80
CCOc1cc(C)nc(-c2cccc(CCCO/N=C(\C)c3cc(C)cc(C)n3)n2)c1 [P.28]	≥ 80
C=CCOc1cc(C)nc(-c2cccc(CCCO/N=C(\C)c3cc(C)cc(C)n3)n2)c1 [P.30]	≥ 80

Tested on: Monographella nivalis (Microdochium nivale)
Assay: Monographella nivalis (Microdochium nivale) / liquid culture (foot rot cereals)
Assay type: cell-based
Settings: PDB, 24° C., 4-5 days after application, read-out: control of Monographella nivalis (inhibition of growth, photometric)

SMILES	inhibition at 200 ppm [%]
C/C(=N\OCCCc1cccc(-c2ccccn2)n1)c1cccc(C)n1 [P.01]	≥ 80
C/C(=N\OCCCc1cccc(-c2ccnc(C3CC3)n2)n1)c1cccc(C)n1 [P.07]	≥ 80
C/C(=N\OCCCc1cccc(-c2cc(OCc3ccccc3)cc(C)n2)n1)c1cccc(C)n1 [P.15]	≥ 80
C#CCOc1cc(C)nc(-c2cccc(CCCO/N=C(\C)c3cccc(C)n3)n2)c1 [P.24]	≥ 80
C=CCOc1cc(C)nc(-c2cccc(CCCO/N=C(\C)c3cccc(C)n3)n2)c1 [P.25]	≥ 80
CCCOc1cc(C)nc(-c2cccc(CCCO/N=C(\C)c3cccc(C)n3)n2)c1 [P.26]	≥ 80
CCOc1cc(C)nc(-c2cccc(CCCO/N=C(\C)c3cc(C)cc(C)n3)n2)c1 [P.28]	≥ 80
C=CCOc1cc(C)nc(-c2cccc(CCCO/N=C(\C)c3cc(C)cc(C)n3)n2)c1 [P.30]	≥ 80

Tested on: Pythium ultimum
Assay: Pythium ultimum / liquid culture (seedling damping off)
Assay type: cell-based
Settings: Globisporangium ultimum, potato dextrose broth, 24° C., 2-3 days after application, read-out: control of Pythium ultimum (inhibition of growth, photometric)

SMILES	inhibition at 200 ppm [%]
C=CCOc1cc(C)nc(-c2cccc(CCCO/N=C(\C)c3cccc(C)n3)n2)c1 [P.25]	≥ 80
CCOc1cc(C)nc(-c2cccc(CCCO/N=C(\C)c3cc(C)cc(C)n3)n2)c1 [P.28]	≥ 80

Tested on: Pyrenophora teres
Assay: not given
Settings: in Hordeum vulgare, foliar, read-out: control of Pyrenophora teres (disease control compared to untreated)

SMILES	pest or weed control at 200 ppm [%]
C/C(=N\OCCCc1cccc(-c2ccccn2)n1)c1cccc(C)n1 [P.01]	≥ 80
C/C(=N\OCCCc1cccc(-c2ccnc(C)n2)n1)c1cccc(C)n1 [P.03]	≥ 80
C/C(=N\OCCCc1cccc(-c2ccnc(C3CC3)n2)n1)c1cccc(C)n1 [P.07]	≥ 80
C/C(=N\OCCCc1cccc(-c2cc(OCc3ccccc3)cc(C)n2)n1)c1cccc(C)n1 [P.15]	≥ 80
C#CCOc1cc(C)nc(-c2cccc(CCCO/N=C(\C)c3cccc(C)n3)n2)c1 [P.24]	≥ 80
C=CCOc1cc(C)nc(-c2cccc(CCCO/N=C(\C)c3cccc(C)n3)n2)c1 [P.25]	≥ 80
CCCOc1cc(C)nc(-c2cccc(CCCO/N=C(\C)c3cccc(C)n3)n2)c1 [P.26]	≥ 80
CCOc1cc(C)nc(-c2cccc(CCCO/N=C(\C)c3cc(C)cc(C)n3)n2)c1 [P.28]	≥ 80
C=CCOc1cc(C)nc(-c2cccc(CCCO/N=C(\C)c3cc(C)cc(C)n3)n2)c1 [P.30]	≥ 80

Tested on: Puccinia recondita f. sp. tritici
Assay: not given
Settings: in Triticum aestivum, foliar, read-out: control of Puccinia recondita f. sp. tritici (percent disease control compared to untreated)

SMILES	pest or weed control at 200 ppm [%]
C/C(=N\OCCCc1cccc(-c2ccccn2)n1)c1cccc(C)n1 [P.01]	≥ 80
C/C(=N\OCCCc1cccc(-c2ccnc(C)n2)n1)c1cccc(C)n1 [P.03]	≥ 80
C/C(=N\OCCCc1cccc(-c2cc(OCc3ccccc3)cc(C)n2)n1)c1cccc(C)n1 [P.15]	≥ 80
C#CCOc1cc(C)nc(-c2cccc(CCCO/N=C(\C)c3cccc(C)n3)n2)c1 [P.24]	≥ 80
C=CCOc1cc(C)nc(-c2cccc(CCCO/N=C(\C)c3cccc(C)n3)n2)c1 [P.25]	≥ 80
CCCOc1cc(C)nc(-c2cccc(CCCO/N=C(\C)c3cccc(C)n3)n2)c1 [P.26]	≥ 80
CCOc1cc(C)nc(-c2cccc(CCCO/N=C(\C)c3cc(C)cc(C)n3)n2)c1 [P.28]	≥ 80
C=CCOc1cc(C)nc(-c2cccc(CCCO/N=C(\C)c3cc(C)cc(C)n3)n2)c1 [P.30]	≥ 80

Tested on: Puccinia recondita f. sp. tritici
Assay: not given
Settings: in Triticum aestivum, foliar, read-out: control of Puccinia recondita f. sp. tritici (percent disease control compared to untreated)
Remark: another data set of the same source

SMILES	pest or weed control at 200 ppm [%]
C/C(=N\OCCCc1cccc(-c2ccccn2)n1)c1cccc(C)n1 [P.01]	≥ 80
C/C(=N\OCCCc1cccc(-c2cc(OCc3ccccc3)cc(C)n2)n1)c1cccc(C)n1 [P.15]	≥ 80
C#CCOc1cc(C)nc(-c2cccc(CCCO/N=C(\C)c3cccc(C)n3)n2)c1 [P.24]	≥ 80
C=CCOc1cc(C)nc(-c2cccc(CCCO/N=C(\C)c3cccc(C)n3)n2)c1 [P.25]	≥ 80
CCCOc1cc(C)nc(-c2cccc(CCCO/N=C(\C)c3cccc(C)n3)n2)c1 [P.26]	≥ 80
CCOc1cc(C)nc(-c2cccc(CCCO/N=C(\C)c3cc(C)cc(C)n3)n2)c1 [P.28]	≥ 80
C=CCOc1cc(C)nc(-c2cccc(CCCO/N=C(\C)c3cc(C)cc(C)n3)n2)c1 [P.30]	≥ 80

Tested on: Thanatephorus cucumeris (Rhizoctonia solani)
Assay: not given
Settings: read-out: control of Thanatephorus cucumeris (inhibition of growth, photometric)

SMILES	inhibition at 200 ppm [%]
C/C(=N\OCCCc1cccc(-c2ccccn2)n1)c1cccc(C)n1 [P.01]	≥ 80
C/C(=N\OCCCc1cccc(-c2ccnc(C)n2)n1)c1cccc(C)n1 [P.03]	≥ 80
C/C(=N\OCCCc1cccc(-c2ccnc(C3CC3)n2)n1)c1cccc(C)n1 [P.07]	≥ 80
C/C(=N\OCCCc1cccc(-c2cc(OCc3ccccc3)cc(C)n2)n1)c1cccc(C)n1 [P.15]	≥ 80
C#CCOc1cc(C)nc(-c2cccc(CCCO/N=C(\C)c3cccc(C)n3)n2)c1 [P.24]	≥ 80
C=CCOc1cc(C)nc(-c2cccc(CCCO/N=C(\C)c3cccc(C)n3)n2)c1 [P.25]	≥ 80
CCCOc1cc(C)nc(-c2cccc(CCCO/N=C(\C)c3cccc(C)n3)n2)c1 [P.26]	≥ 80
CCOc1cc(C)nc(-c2cccc(CCCO/N=C(\C)c3cc(C)cc(C)n3)n2)c1 [P.28]	≥ 80
C=CCOc1cc(C)nc(-c2cccc(CCCO/N=C(\C)c3cc(C)cc(C)n3)n2)c1 [P.30]	≥ 80

Tested on: Phaeosphaeria nodorum (Septoria nodorum)
Assay: not given
Settings: Parastagonospora nodorum, in Triticum aestivum, foliar, read-out: control of Phaeosphaeria nodorum (percent disease control compared to untreated)

SMILES	pest or weed control at 200 ppm [%]
C/C(=N\OCCCc1cccc(-c2ccccn2)n1)c1cccc(C)n1 [P.01]	≥ 80
C/C(=N\OCCCc1cccc(-c2ccnc(C)n2)n1)c1cccc(C)n1 [P.03]	≥ 80
C/C(=N\OCCCc1cccc(-c2ccnc(C3CC3)n2)n1)c1cccc(C)n1 [P.07]	≥ 80
C/C(=N\OCCCc1cccc(-c2cc(OCc3ccccc3)cc(C)n2)n1)c1cccc(C)n1 [P.15]	≥ 80
C#CCOc1cc(C)nc(-c2cccc(CCCO/N=C(\C)c3cccc(C)n3)n2)c1 [P.24]	≥ 80
C=CCOc1cc(C)nc(-c2cccc(CCCO/N=C(\C)c3cccc(C)n3)n2)c1 [P.25]	≥ 80
CCCOc1cc(C)nc(-c2cccc(CCCO/N=C(\C)c3cccc(C)n3)n2)c1 [P.26]	≥ 80
CCOc1cc(C)nc(-c2cccc(CCCO/N=C(\C)c3cc(C)cc(C)n3)n2)c1 [P.28]	≥ 80
C=CCOc1cc(C)nc(-c2cccc(CCCO/N=C(\C)c3cc(C)cc(C)n3)n2)c1 [P.30]	≥ 80
